In patent US20090304692A1, “TRIAZINE COMPOUNDS AS PI3 KINASE AND MTOR INHIBITORS” (Wyeth, priority 2008, published 2009):
Like-named read-outs stand apart in the source and are kept apart here.

Tests used:
Human mTOR (FLAG-TOR) = Human mTOR (FLAG-TOR) (Homo sapiens, UniProt P42345); assay: mTOR kinase assay (DELFIA format, purified enzyme); type: biochemical; details: read-out: IC50 mTOR
PI3K-α = PI3K-α (Homo sapiens, UniProt P42336); assay: PI3K-alpha fluorescence polarization assay; details: read-out: IC50 PI3Kα
PI3K-γ = PI3K-γ (Homo sapiens, UniProt P48736); assay: PI3K-gamma fluorescence polarization assay
[1] = test system: human prostate LNCap tumor cell line; assay: In vitro cell culture growth assay (MTS), LNCap; details: Homo sapiens, LNCaP, 72 h, read-out: IC50 LNCap

Sequence of Human mTOR (FLAG-TOR) (P42345 1360-2549 limits assumed): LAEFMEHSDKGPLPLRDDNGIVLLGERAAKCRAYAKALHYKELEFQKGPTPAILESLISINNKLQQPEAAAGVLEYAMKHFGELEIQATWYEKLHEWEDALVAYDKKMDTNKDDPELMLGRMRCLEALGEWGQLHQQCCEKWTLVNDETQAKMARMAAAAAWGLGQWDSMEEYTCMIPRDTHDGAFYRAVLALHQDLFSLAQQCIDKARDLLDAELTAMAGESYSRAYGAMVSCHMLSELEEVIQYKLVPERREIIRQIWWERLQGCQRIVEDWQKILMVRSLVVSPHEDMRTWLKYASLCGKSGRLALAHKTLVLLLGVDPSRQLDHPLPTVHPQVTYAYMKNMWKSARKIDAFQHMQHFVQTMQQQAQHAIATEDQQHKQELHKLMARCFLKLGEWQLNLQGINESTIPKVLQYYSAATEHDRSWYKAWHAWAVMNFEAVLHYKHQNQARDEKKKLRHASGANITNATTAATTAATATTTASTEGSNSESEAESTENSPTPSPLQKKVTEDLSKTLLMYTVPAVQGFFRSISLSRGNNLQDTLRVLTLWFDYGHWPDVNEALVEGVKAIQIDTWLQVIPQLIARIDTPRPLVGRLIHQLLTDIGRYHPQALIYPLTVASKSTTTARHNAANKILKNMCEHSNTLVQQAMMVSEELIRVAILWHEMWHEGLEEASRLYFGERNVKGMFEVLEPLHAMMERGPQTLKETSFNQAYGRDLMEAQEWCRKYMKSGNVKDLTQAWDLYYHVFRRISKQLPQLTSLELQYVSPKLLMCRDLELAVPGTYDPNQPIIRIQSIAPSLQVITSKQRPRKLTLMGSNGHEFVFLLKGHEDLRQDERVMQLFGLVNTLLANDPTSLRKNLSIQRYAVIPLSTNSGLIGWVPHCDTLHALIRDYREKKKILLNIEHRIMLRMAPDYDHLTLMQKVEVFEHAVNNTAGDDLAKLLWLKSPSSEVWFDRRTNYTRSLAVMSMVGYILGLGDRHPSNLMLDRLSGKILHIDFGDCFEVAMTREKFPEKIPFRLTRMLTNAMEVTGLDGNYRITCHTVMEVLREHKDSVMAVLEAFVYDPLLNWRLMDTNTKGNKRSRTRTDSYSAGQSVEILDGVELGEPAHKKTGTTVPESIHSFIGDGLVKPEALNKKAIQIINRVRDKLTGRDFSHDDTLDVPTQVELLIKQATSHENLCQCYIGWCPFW
Sequence of PI3K-α (P42336 whole entry, species assumed): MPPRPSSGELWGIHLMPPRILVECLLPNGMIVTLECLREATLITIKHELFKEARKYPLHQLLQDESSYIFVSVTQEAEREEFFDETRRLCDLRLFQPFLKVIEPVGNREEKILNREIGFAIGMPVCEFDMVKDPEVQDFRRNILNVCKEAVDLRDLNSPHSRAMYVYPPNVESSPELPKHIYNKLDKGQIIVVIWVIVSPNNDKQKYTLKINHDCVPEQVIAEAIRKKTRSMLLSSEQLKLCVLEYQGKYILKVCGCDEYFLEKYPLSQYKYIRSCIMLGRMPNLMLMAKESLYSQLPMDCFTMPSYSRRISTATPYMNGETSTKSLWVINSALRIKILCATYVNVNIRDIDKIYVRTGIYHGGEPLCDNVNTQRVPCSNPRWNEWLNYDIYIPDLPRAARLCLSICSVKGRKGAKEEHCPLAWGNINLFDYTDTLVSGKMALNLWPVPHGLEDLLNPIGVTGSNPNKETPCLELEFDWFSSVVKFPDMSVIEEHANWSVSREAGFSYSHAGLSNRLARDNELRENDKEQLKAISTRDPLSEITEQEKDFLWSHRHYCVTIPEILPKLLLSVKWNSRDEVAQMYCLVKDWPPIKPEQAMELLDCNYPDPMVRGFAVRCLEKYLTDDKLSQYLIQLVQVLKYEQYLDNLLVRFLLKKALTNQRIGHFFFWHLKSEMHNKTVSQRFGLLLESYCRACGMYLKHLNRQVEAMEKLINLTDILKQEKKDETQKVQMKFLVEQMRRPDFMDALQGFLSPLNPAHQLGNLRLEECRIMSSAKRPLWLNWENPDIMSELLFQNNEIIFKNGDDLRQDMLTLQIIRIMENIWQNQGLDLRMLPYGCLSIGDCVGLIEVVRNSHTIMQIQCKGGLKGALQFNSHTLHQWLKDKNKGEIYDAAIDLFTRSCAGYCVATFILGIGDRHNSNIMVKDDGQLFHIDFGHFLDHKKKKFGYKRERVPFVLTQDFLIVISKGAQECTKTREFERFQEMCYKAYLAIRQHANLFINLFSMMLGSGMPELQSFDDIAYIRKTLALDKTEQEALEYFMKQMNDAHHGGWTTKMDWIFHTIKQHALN
Sequence of PI3K-α (P27986 whole entry partner, species assumed): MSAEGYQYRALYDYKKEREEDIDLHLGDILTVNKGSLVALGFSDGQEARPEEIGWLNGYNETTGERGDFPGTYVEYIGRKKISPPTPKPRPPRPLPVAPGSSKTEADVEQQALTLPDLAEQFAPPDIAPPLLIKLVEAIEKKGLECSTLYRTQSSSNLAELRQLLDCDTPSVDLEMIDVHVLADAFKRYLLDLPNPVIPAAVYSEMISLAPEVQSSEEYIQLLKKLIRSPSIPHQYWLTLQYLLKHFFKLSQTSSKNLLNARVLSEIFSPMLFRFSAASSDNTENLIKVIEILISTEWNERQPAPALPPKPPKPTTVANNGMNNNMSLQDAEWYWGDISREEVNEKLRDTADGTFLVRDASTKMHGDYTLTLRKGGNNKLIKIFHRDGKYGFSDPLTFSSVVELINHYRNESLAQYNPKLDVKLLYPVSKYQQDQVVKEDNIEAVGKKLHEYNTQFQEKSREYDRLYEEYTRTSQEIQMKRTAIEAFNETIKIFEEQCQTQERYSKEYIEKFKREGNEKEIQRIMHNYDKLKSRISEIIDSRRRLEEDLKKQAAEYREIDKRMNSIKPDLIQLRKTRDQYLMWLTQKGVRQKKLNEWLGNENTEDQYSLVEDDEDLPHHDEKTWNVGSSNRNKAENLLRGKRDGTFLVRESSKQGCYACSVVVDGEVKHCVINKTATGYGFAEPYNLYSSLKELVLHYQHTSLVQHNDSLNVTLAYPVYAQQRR
Sequence of PI3K-γ (P48736 whole entry, species assumed): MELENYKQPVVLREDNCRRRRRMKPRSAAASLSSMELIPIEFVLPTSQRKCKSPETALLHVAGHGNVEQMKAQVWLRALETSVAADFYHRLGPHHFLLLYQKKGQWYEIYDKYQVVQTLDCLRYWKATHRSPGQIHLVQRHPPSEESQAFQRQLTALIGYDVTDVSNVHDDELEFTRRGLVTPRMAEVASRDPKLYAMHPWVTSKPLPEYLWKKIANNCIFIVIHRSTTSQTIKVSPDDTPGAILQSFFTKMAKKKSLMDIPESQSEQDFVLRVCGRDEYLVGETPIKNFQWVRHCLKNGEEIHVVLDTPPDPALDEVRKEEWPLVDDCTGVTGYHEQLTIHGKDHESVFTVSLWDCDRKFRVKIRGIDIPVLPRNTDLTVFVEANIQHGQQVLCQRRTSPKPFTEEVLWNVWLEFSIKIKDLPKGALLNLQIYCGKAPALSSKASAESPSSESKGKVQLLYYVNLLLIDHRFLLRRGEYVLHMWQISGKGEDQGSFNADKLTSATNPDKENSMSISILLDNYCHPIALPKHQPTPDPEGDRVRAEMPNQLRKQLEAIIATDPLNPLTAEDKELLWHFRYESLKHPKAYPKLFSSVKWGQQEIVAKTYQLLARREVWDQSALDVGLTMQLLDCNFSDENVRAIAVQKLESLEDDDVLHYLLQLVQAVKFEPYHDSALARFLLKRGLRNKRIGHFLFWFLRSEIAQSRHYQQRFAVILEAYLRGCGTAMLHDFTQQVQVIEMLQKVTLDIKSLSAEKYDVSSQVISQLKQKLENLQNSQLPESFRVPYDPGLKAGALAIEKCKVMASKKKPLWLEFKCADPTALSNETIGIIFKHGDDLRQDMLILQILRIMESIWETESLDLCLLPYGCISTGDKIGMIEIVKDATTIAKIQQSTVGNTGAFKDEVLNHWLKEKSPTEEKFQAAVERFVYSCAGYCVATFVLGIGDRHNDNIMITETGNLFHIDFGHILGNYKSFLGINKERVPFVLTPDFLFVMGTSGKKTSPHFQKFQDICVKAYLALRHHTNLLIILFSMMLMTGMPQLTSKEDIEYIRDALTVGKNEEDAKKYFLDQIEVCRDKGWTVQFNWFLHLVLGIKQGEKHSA

IC50 (Human mTOR (FLAG-TOR)) [nM]	IC50 (PI3K-α) [nM]	IC50 (PI3K-γ; read-out: IC50 PI3Kγ) [nM]	IC50 [1] [nM]	IC50 (PI3K-γ) [nM]	Compound
0.75	314	2380	8	–	C[C@@H]1COCCN1c1nc(-c2ccc(NC(=O)Nc3ccc(OCCN4CCCC4)cc3)cc2)nc(N2CCOC[C@H]2C)n1 [Example 403, 1-(4-(4,6-bis((R)-3-methylmorpholino)-1,3,5-triazin-2-yl)phenyl)-3-(4-(2-(pyrrolidin-1-yl)ethoxy)phenyl)urea]
2.3	826	5680	110	–	C[C@@H]1COCCN1c1nc(-c2ccc(NC(=O)Nc3ccncc3)cc2)nc(N2C[C@@H]3C[C@H]2CO3)n1 [Example 410, 1-(4-(4-((1S,4S)-2-oxa-5-azabicyclo[2.2.1]heptan-5-yl)-6-((R)-3-methylmorpholino)-1,3,5-triazin-2-yl)phenyl)-3-(pyridin-4-yl)urea]
3.6	1900	–	250	> 10000	C[C@@H]1COCCN1c1nc(-c2ccc(NC(=O)Nc3cccnc3)cc2)nc(N2C[C@@H]3C[C@H]2CO3)n1 [Example 411, 1-(4-(4-((1S,4S)-2-oxa-5-azabicyclo[2.2.1]heptan-5-yl)-6-((R)-3-methylmorpholino)-1,3,5-triazin-2-yl)phenyl)-3-(pyridin-3-yl)urea]
7.3	1230	7480	25	–	C[C@@H]1COCCN1c1nc(-c2ccc(NC(=O)Nc3ccc(N4CCN(C)CC4)cc3)cc2)nc(N2C[C@@H]3C[C@H]2CO3)n1 [Example 412, 1-(4-(4-((1S,4S)-2-oxa-5-azabicyclo[2.2.1]heptan-5-yl)-6-((R)-3-methylmorpholino)-1,3,5-triazin-2-yl)phenyl)-3-(4-(4-methylpiperazin-1-yl)phenyl)urea]
9.2	1520	–	150	> 10000	C[C@@H]1COCCN1c1nc(-c2ccc(NC(=O)Nc3ccc(CN4CCN(C)CC4)cc3)cc2)nc(N2C[C@@H]3C[C@H]2CO3)n1 [Example 413, 1-(4-(4-((1S,4S)-2-oxa-5-azabicyclo[2.2.1]heptan-5-yl)-6-((R)-3-methylmorpholino)-1,3,5-triazin-2-yl)phenyl)-3-(4-((4-methylpiperazin-1-yl)methyl)phenyl)urea]
6.9	969	5450	120	–	C[C@@H]1COCCN1c1nc(-c2ccc(NC(=O)Nc3ccc(CN4CCCC4)cc3)cc2)nc(N2C[C@@H]3C[C@H]2CO3)n1 [Example 414, 1-(4-(4-((1S,4S)-2-oxa-5-azabicyclo[2.2.1]heptan-5-yl)-6-((R)-3-methylmorpholino)-1,3,5-triazin-2-yl)phenyl)-3-(4-(pyrrolidin-1-ylmethyl)phenyl)urea]
0.72	414	1570	1	–	C[C@@H]1COCCN1c1nc(-c2ccc(NC(=O)Nc3ccc(N4CCN(C)CC4)cc3)cc2)nc(C2CCOCC2)n1 [Example 421, (R)-1-(4-(4-(3-methylmorpholino)-6-(tetrahydro-2H-pyran-4-yl)-1,3,5-triazin-2-yl)phenyl)-3-(4-(4-methylpiperazin-1-yl)phenyl)urea]
0.79	269	1220	2	–	C[C@@H]1COCCN1c1nc(-c2ccc(NC(=O)Nc3ccc(N4CCNCC4)cc3)cc2)nc(C2CCOCC2)n1 [Example 422, (R)-1-(4-(4-(3-methylmorpholino)-6-(tetrahydro-2H-pyran-4-yl)-1,3,5-triazin-2-yl)phenyl)-3-(4-(piperazin-1-yl)phenyl)urea]
1.3	580	1420	7	–	C[C@@H]1COCCN1c1nc(-c2ccc(NC(=O)Nc3ccc(OCCN(C)C)cc3)cc2)nc(C2CCOCC2)n1 [Example 427, (R)-1-(4-(2-(dimethylamino)ethoxy)phenyl)-3-(4-(4-(3-methylmorpholino)-6-(tetrahydro-2H-pyran-4-yl)-1,3,5-triazin-2-yl)phenyl)urea]
1.4	450	840	1	–	CCN1CCN(c2ccc(NC(=O)Nc3ccc(-c4nc(C5CCOCC5)nc(N5CCOC[C@H]5C)n4)cc3)cc2)CC1 [Example 428, (R)-1-(4-(4-ethylpiperazin-1-yl)phenyl)-3-(4-(4-(3-methylmorpholino)-6-(tetrahydro-2H-pyran-4-yl)-1,3,5-triazin-2-yl)phenyl)urea]
1.9	483	1000	9	–	CC(C)N1CCN(c2ccc(NC(=O)Nc3ccc(-c4nc(C5CCOCC5)nc(N5CCOC[C@H]5C)n4)cc3)cc2)CC1 [Example 429, (R)-1-(4-(4-isopropylpiperazin-1-yl)phenyl)-3-(4-(4-(3-methylmorpholino)-6-(tetrahydro-2H-pyran-4-yl)-1,3,5-triazin-2-yl)phenyl)urea]
1.7	402	484	16	–	C[C@@H]1COCCN1c1nc(-c2ccc(NC(=O)Nc3ccc(N4CCC(N(C)C)CC4)cc3)cc2)nc(C2CCOCC2)n1 [Example 430, (R)-1-(4-(4-(dimethylamino)piperidin-1-yl)phenyl)-3-(4-(4-(3-methylmorpholino)-6-(tetrahydro-2H-pyran-4-yl)-1,3,5-triazin-2-yl)phenyl)urea]
1	43	340	< 0.8	–	C[C@@H]1COCCN1c1nc(-c2ccc(NC(=O)Nc3ccc(C(=O)N4CCN(C)CC4)cc3)cc2)nc(C2CCOCC2)n1 [Example 431, (R)-1-(4-(4-(3-methylmorpholino)-6-(tetrahydro-2H-pyran-4-yl)-1,3,5-triazin-2-yl)phenyl)-3-(4-(4-methylpiperazine-1-carbonyl)phenyl)urea]
0.69	90	480	< 0.8	–	CC(C)N1CCN(C(=O)c2ccc(NC(=O)Nc3ccc(-c4nc(C5CCOCC5)nc(N5CCOC[C@H]5C)n4)cc3)cc2)CC1 [Example 432, (R)-1-(4-(4-isopropylpiperazine-1-carbonyl)phenyl)-3-(4-(4-(3-methylmorpholino)-6-(tetrahydro-2H-pyran-4-yl)-1,3,5-triazin-2-yl)phenyl)urea]

Compound	IC50 (Human mTOR (FLAG-TOR)) [nM]	IC50 (PI3K-α) [nM]	IC50 (PI3K-γ; read-out: IC50 PI3Kγ) [nM]	IC50 [1] [nM]	IC50 (PI3K-γ) [nM]
O=C(Nc1ccncc1)Nc1ccc(-c2nc(C3=CCOCC3)nc(N3C4CCC3COC4)n2)cc1 [Example 404, 1-(4-(4-(3-oxa-8-azabicyclo[3.2.1]octan-8-yl)-6-(3,6-dihydro-2H-pyran-4-yl)-1,3,5-triazin-2-yl)phenyl)-3-(pyridin-4-yl)urea]	0.69	63	433	60	–
O=C(Nc1ccncc1)Nc1ccc(-c2nc(C3CCOCC3)nc(N3C4CCC3COC4)n2)cc1 [Example 406, 1-(4-(4-(3-oxa-8-azabicyclo[3.2.1]octan-8-yl)-6-(tetrahydro-2H-pyran-4-yl)-1,3,5-triazin-2-yl)phenyl)-3-(pyridin-4-yl)urea]	0.38	478	1880	2.4	–
CN(C)Cc1ccc(NC(=O)Nc2ccc(-c3nc(C4CCOCC4)nc(N4C5CCC4COC5)n3)cc2)cc1 [Example 409, 1-(4-(4-(3-oxa-8-azabicyclo[3.2.1]octan-8-yl)-6-(tetrahydro-2H-pyran-4-yl)-1,3,5-triazin-2-yl)phenyl)-3-(4-((dimethylamino)methyl)phenyl)urea]	1.5	856	4490	50	–
C[C@@H]1COCCN1c1nc(-c2ccc(NC(=O)Nc3cccnc3)cc2)nc(N2C3CCC2COC3)n1 [Example 415, 1-(4-(4-(3-oxa-8-azabicyclo[3.2.1]octan-8-yl)-6-((R)-3-methylmorpholino)-1,3,5-triazin-2-yl)phenyl)-3-(pyridin-3-yl)urea]	0.38	787	3260	29	–
C[C@@H]1COCCN1c1nc(-c2ccc(NC(=O)Nc3ccncc3)cc2)nc(N2C3CCC2COC3)n1 [Example 416, 1-(4-(4-(3-oxa-8-azabicyclo[3.2.1]octan-8-yl)-6-((R)-3-methylmorpholino)-1,3,5-triazin-2-yl)phenyl)-3-(pyridin-4-yl)urea]	0.55	446	2500	12	–
C[C@@H]1COCCN1c1nc(-c2ccc(NC(=O)Nc3ccc(CN4CCCC4)cc3)cc2)nc(N2C3CCC2COC3)n1 [Example 418, 1-(4-(4-(3-oxa-8-azabicyclo[3.2.1]octan-8-yl)-6-((R)-3-methylmorpholino)-1,3,5-triazin-2-yl)phenyl)-3-(4-(pyrrolidin-1-ylmethyl)phenyl)urea]	1.5	520	3480	40	–
CN1CCN(c2ccc(NC(=O)Nc3ccc(-c4nc(N5CC[S+]([O-])CC5)nc(N5C6CCC5COC6)n4)cc3)cc2)CC1 [Example 426, 1-(4-(4-(3-oxa-8-azabicyclo[3.2.1]octan-8-yl)-6-sulfoxymorpholino-1,3,5-triazin-2-yl)phenyl)-3-(4-(4-methylpiperazin-1-yl)phenyl)urea]	53	1220	8480	700	–
O=C(Nc1ccc(-c2nc(C3CCOCC3)nc(N3C4CCC3COC4)n2)cc1)Nc1ccc(N2CCN(C3CC3)CC2)cc1 [Example 436, 1-(4-(4-(3-oxa-8-azabicyclo[3.2.1]octan-8-yl)-6-(tetrahydro-2H-pyran-4-yl)-1,3,5-triazin-2-yl)phenyl)-3-(4-(4-cyclopropylpiperazin-1-yl)phenyl)urea]	0.62	749	3120	10	–
